Data taken from patent US20140193827A1 (TEVA PHARMACEUTICAL INDUSTRIES, LTD., priority 2013, published 2014).

System: GA-primed murine splenocytes
Assay: Differentially expressed genes GA vs PG by multiple parametric tests (ANOVA, LIMMA with background subtraction, comparative marker selection SNR and t-test)
Type: cell-based, mouse
Description: The experimental design, data collection, and pre-processing steps have been previously described. […] After 3 days the mice were sacrificed, their splenocytes were isolated, and these splenocytes were mixed with activator solutions for 24 hours. […] Then the RNA was extracted and gene expression characterized by microarray using an Illumine WG-6_V2 chip. Illumina's BeadStudio software was utilized for image processing, quantification of signal intensity per bead, and background signal correction. The microarray data have been deposited in the Gene Expression Omnibus, under accession number GSE40566.
We then corrected for batch variation with ComBat (30) as implemented in the SVA package of R (62). Each microarray's chip designation was supplied a batch label; there were 18 batches in all. The labels for the treatments (i.e. drug product, reference standard . . . ) were added as covariates.
First, we computed the statistical significance of differential expression between treatments using the Analysis of Variance (ANOVA) method for each probe (65), adjusting for multiple hypothesis testing using the Benjamini-Hochberg False Discovery Rate (FDR) correction (66). […] The coefficients for the linear model were tested for significance using a modified t-test (taking into account standard deviation) and the p-values for each probe were adjusted using FDR. […] We applied two separate techniques within this framework; a traditional T-test and a Signal-to-Noise Ratio test (SNR). For each of these two tests, we adjusted the nominal p-values via FDR. For all four tests described, we used an adjusted threshold that was less than or equal to 0.05.

glatiramer acetate [GA]
FOXP3 expression, GA vs PG: significantly higher expression
GPR83 expression, GA vs PG: significantly higher levels of expression
IFNG expression, GA compared to PG (probes ranked #1 and #3 by fold change): upregulated dramatically
